From article PMC4719150 (Biochemistry, 2015)
Numbered stars: 1 amine (or outer) side, 2 acyl side, 3 side chain; on linkers, the order of the positions; unused ones are H or OH. Bridge positions count the residues as written; N and C are the ends. Square brackets hold non-standard residues; d marks the D form. Peptide text beside a SMILES is read from it. I, II: the chains in the order shown. Actinocin(9to1) = Cc1c2oc3c(C)ccc(C(=O)[*:1])c3nc-2c(C(=O)[*:2])c(N)c1=O; NMeV = CN[C@H](C(=O)O)C(C)C; Sar = CNCC(=O)O

Experiments:
[1] = tested on: fireSMASh (firefly luciferase fused to SMASh tag); experiment: Firefly luciferase activity after virus growth in the presence of ASV; format: cell-based; settings: growth of recRSV-L19FD489E-fireSMASh in the presence of 3 μM ASV; 44 hours post-infection
[2] = tested on: recRSV-L19FD489E-fireSMASh; experiment: Peak progeny virus titers after incubation with ASV; format: cell-based, respiratory syncytial virus; settings: 3 μM ASV versus vehicle
[3] = tested on: recIAV WSN-NanoLuc; experiment: microbe, parasite or virus in culture; format: cell-based; settings: Influenza A virus, BEAS-2B, 40 h, read-out: % Inhibition (anti-IAV)
[4] = tested on: recIAV WSN-NanoLuc; experiment: microbe, parasite or virus in culture; settings: Influenza A virus, BEAS-2B, read-out: EC50 IAV WSN-nanoLuc
[5] = tested on: recRSV A2-L19FD489E-fireSMASh
[6] = in vitro; settings: human
[7] = tested on: recRSV A2-L19F-renilla; experiment: microbe, parasite or virus in culture; format: cell-based; settings: human respiratory syncytial virus, BEAS-2B, read-out: EC50 RSV A2-L19F-renilla
[8] = tested on: recIAV WSN-NanoLuc
[9] = tested on: BEAS-2B cells; settings: uninfected BEAS-2B cells, highest concentration assessed 10 μM, tox = less than 50% cell viability after 44 hours at ≤10 μM; for CC50: read-out: CC50 (PrestoBlue cell viability)

C=C[C@@H]1C[C@]1(NC(=O)[C@@H]1C[C@@H](Oc2ncc(OC)c3ccc(Cl)cc23)CN1C(=O)[C@@H](NC(=O)OC(C)(C)C)C(C)(C)C)C(=O)NS(=O)(=O)C1CC1 [ASV, Asunaprevir]
reduction of firefly luciferase activity [1]: approximately 90% | effect on progeny virus titers [2]: no effect

Cc1c2oc3c(C)ccc(C(=O)N[C@@H]4C(=O)N[C@H](C(C)C)C(=O)N5CCC[C@H]5C(=O)N(C)CC(=O)N(C)[C@@H](C(C)C)C(=O)O[C@@H]4C)c3nc-2c(C(=O)N[C@@H]2C(=O)N[C@H](C(C)C)C(=O)N3CCC[C@H]3C(=O)N(C)CC(=O)N(C)[C@@H](C(C)C)C(=O)O[C@@H]2C)c(N)c1=O [Actinomycin D] (I: T[dV]P[Sar][NMeV] / II: T[dV]P[Sar][NMeV]; ester I:1-I:C, II:1-II:C; linker I:N-II:N via Actinocin(9to1))
inhibition at 5 µM [3]: 104 ± 1.5%

Nc1nc(N)c2nc(CNc3ccc(C(=O)N[C@@H](CCC(=O)O)C(=O)O)cc3)cnc2n1 [Aminopterin]
EC50 [4]: 90 nM | SI RSV [CC50/EC50] [5]: SIIAV 111 SIRSV 143 conf. broad spectrum [79], [80] | CC50 [6]: 10000 nM | EC50 [7]: 50 nM | SI IAV [CC50/EC50] [8]: SIIAV 111 SIRSV 143 conf. broad spectrum [79], [80]

CC(=O)OC[C@H]1O[C@@H]([S-])[C@H](OC(C)=O)[C@@H](OC(C)=O)[C@@H]1OC(C)=O.CCP(CC)CC.[Au+] [Auranofin]
CC50 (PrestoBlue cell viability) [9]: tox^d

COc1cc2nc(N3CCCN(C)CC3)nc(NC3CCN(Cc4ccccc4)CC3)c2cc1OC [BIX 01294]
EC50 RSV A2-L19FD489E-fireSMASh [5]: inactive^e | CC50 [6]: > 10000 nM | EC50 IAV WSN-nanoLuc [8]: inactive^e

O=C1C(=Cc2ccccc2)C[C@@]2(O)[C@H]3Cc4ccc(O)c5c4[C@@]2(CCN3CC2CC2)[C@H]1O5 [BNTX-7]
CC50 [9]: > 10000 nM | SI RSV [CC50/EC50] [5]: SIRSV >4 | EC50 ([5]; read-out: EC50 RSV A2-L19FD489E-fireSMASh): 2500 nM | EC50 IAV WSN-nanoLuc [8]: inactive^e | effect on IAV reporter strain [8]: unaffected

Cc1c(-c2ccc(-c3ccccc3F)cc2)nc2ccc(F)cc2c1C(=O)O [Brequinar]
EC50 [4]: 2600 nM | SI RSV [CC50/EC50] [5]: SIIAV >3.8 SIRSV >6.3 conf. broad spectrum [81], [82] | CC50 [6]: > 10000 nM | EC50 [7]: 1800 nM | SI IAV [CC50/EC50] [8]: SIIAV >3.8 SIRSV >6.3 conf. broad spectrum [81], [82]

CNc1ccc2oc(C[C@H]3O[C@@]4(CC[C@H]3C)O[C@H]([C@H](C)C(=O)c3ccc[nH]3)[C@H](C)C[C@H]4C)nc2c1C(=O)O [Calcimycin]
CC50 (PrestoBlue cell viability) [9]: tox^d

CCCCCCCCCCCCCCCCCCOCC(COP(=O)([O-])OCC[N+](C)(C)C)OC (stereo not drawn) [ET-18-OCH3]
CC50 [9]: > 10000 nM | EC50 RSV A2-L19FD489E-fireSMASh [5]: inactive^e | EC50 IAV WSN-nanoLuc [8]: inactive^e

CC[C@H]1CN2CCc3cc(OC)c(OC)cc3[C@@H]2C[C@@H]1C[C@H]1NCCc2cc(OC)c(OC)cc21 [Emetine]
CC50 (PrestoBlue cell viability) [9]: tox^d

COc1cccc2c1C(=O)c1c(O)c3c(c(O)c1C2=O)C[C@@](O)(C(=O)CO)C[C@@H]3O[C@H]1C[C@H](N)[C@@H](O)[C@H](C)O1 [Epirubicin]
inhibition at 5 µM [3]: 75 ± 3.1%

COc1cc([C@@H]2c3cc4c(cc3[C@@H](O[C@@H]3O[C@@H]5CO[C@@H](C)O[C@H]5[C@H](O)[C@H]3O)[C@H]3COC(=O)[C@H]23)OCO4)cc(OC)c1O [Etoposide]
inhibition at 5 µM [3]: 56 ± 5.6%

CC1=C(/C=C/C(C)=C/C=C/C(C)=C/C(=O)Nc2ccc(O)cc2)C(C)(C)CCC1 [Fenretinide]
SI RSV [CC50/EC50] [5]: SIRSV >2.8 Dengue [62], HIV [61] | CC50 [6]: > 10000 nM | EC50 [7]: 4800 nM | EC50 IAV WSN-nanoLuc [8]: inactive^e | effect on IAV reporter strain [8]: unaffected

Nc1ccn([C@@H]2O[C@H](CO)[C@@H](O)C2(F)F)c(=O)n1 [Gemcitabine]
EC50 [4]: 100 nM | SI RSV [CC50/EC50] [5]: SIIAV >100 SIRSV >111 HIV, IAV [49], [50] | CC50 [6]: > 10000 nM | EC50 [7]: 50 nM | SI IAV [CC50/EC50] [8]: SIIAV >100 SIRSV >111 HIV, IAV [49], [50]

COC(=O)C[C@](O)(CCCC(C)(C)O)C(=O)O[C@@H]1C(OC)=C[C@]23CCCN2CCc2cc4c(cc2[C@H]13)OCO4 [Homoharringtonine]
inhibition at 5 µM [3]: 90 ± 2.6%

CC(=O)[C@]1(O)Cc2c(O)c3c(c(O)c2[C@@H](O[C@H]2C[C@H](N)[C@H](O)[C@H](C)O2)C1)C(=O)c1ccccc1C3=O [Idarubicin]
CC50 (PrestoBlue cell viability) [9]: tox^d | inhibition at 5 µM [3]: 97 ± 1%

Oc1ccc(/C=C/c2ccc(/C=C/c3ccc(O)cc3)c(Br)c2)cc1 [K114]
CC50 [9]: > 10000 nM | EC50 RSV A2-L19FD489E-fireSMASh [5]: inactive^e | EC50 IAV WSN-nanoLuc [8]: inactive^e
